How the values were obtained:
Experiment in all cases: Film inoculated on Tryptic Soy Agar plate: growth, zone of inhibition, scraping/streak
Format in all cases: cell-based
Settings in all cases: after 4 days
[1] = test system: Candida albicans ATCC 10231
Procedure: (§1) Each film sample was individually placed on the surface of a Tryptic Soy Agar (TSA) plate in an aseptic manner. Each film was individually inoculated with 1 mL of one of the three (3) challenge organisms shown below. For each challenge organism, one “Sample Film” and one “Control Film” were inoculated. Due to the anticipated slow absorption of the challenge inoculum by the test samples, the inoculum was dispensed onto each film sample very slowly. After inoculation, each sample was carefully moved to incubation at the temperature range appropriate for the inoculated challenge organism and incubated for four (4) days. Each day of incubation, all plates were removed from incubation for visual and stereoscopic evaluation. Upon evaluation, the presence or absence of growth on the plate and/or on the sample was noted. In addition, the sample was evaluated for the presence or absence of a zone of inhibition around the sample. The presence or absence of a zone was reported as “Z” for Zone (size in mm) or “NZ” for no zone present. [table] Additional Test Information: • G=Growth • NG=No Growth • Z=Zone (in mm) • NZ=No Zone • Additional Information/Observations: At the conclusion of the testing period, all test samples were individually removed from the agar surface and gently shaken to remove any excess moisture remaining on the surface of the sample. The samples were then individually examined under the stereoscope by a laboratory technician. […] Following the documentation of the observations above, each sample was scraped with an inoculating loop on the inoculated, top side of each sample to determine whether macroscopic growth could be visually observed. […] The following is a summary of findings from this portion of the test: […]

[2] = test system: Escherichia coli ATCC 8739
Procedure: as §1

[3] = test system: Staphylococcus aureus ATCC 6538
Procedure: as §1

Clc1cccc(Cl)c1N=C1NCCN1 [clonidine, 2,6-dichloro-N-2-imidazolidinyldenebenzenamine]
inhibited growth: growth of fungus (C. albicans) [1] | growth of gram negative bacteria (E. coli) [2] | growth of gram positive bacteria (S. aureus) [3]

Reference: patent US20110097380A1, “CLONIDINE FORMULATIONS HAVING ANTIMICROBIAL PROPERTIES” (Warsaw Orthopedic, Inc., priority 2009, published 2011)
